Results: US11654292B2 (priority 2017, dated 2023)
Read-outs that look alike come from different tables or passages of the source.

Experiments:
MDA-MB-231 cells [1] = assay: Stimulus intensity-response curve of pulsed magnetic field for cell lysis; assay type: cell-based; details: 500 nM digoxin, PMF stimulus intensity 80 mT (FIG. 1)
Protocol: FIG. 1 Stimulus intensity—response curve to determine the strength of the pulsed magnetic field necessary to produce cell lysis of MDA-MB-231 cells, in vitro (p<0.01).
A study was conducted where cells were pulsed with an increasing stimulus intensity to determine the strength of the pulsed magnetic field necessary to produce cell lysis of MDA-MB-231 cells in vitro. […] All tubes were exposed to a 0 to 80 mT PMF.

[2] = system: mouse breast cancer, 4T1, cells; assay: In vivo TOL (digoxin + PMF) in immune competent mice with 4T1 tumors; set-up: species or system BALBc mice; details: 7 mg/kg digoxin s.c. x5 + PMF 30 min on day 0, 2 and 4 (TOL), FIG. 7
Protocol: FIG. 7A. […] Arrows indicate days of treatment; 7B. […] Thus, the life expectancy of mice treated with TOL exceeds that of controls by approximately 1 week.
This treatment was administered on day 0 (first day of treatment), on day 2 and on day 4. Mice were monitored for tumor growth and were sacrificed when they met the NIH criteria for humane endpoint euthanasia.

MDA-MB-231 cells [3] = assay: Sodium dependence of TOL in Ringer's solution with or without sodium; assay type: cell-based; details: Homo sapiens, MDA-MB-231, 10 min
Protocol: FIG. 2 TOL is dependent on the presence of sodium.
A study was conducted where the culture media containing MDA-MB-231 cells was replaced with Ringer's solution with or without sodium and then stimulated with pulsed magnetic fields of 80 mT for 10 minutes. Cells were transferred to microfuge tubes containing either Ringers +Na^+ or Ringers−Na^+.

MDA-MB-231 xenografts = assay: In vivo TOL (digoxin + PMF) in mice with MDA-MB-231 xenografts; set-up: species or system J/Nu mice
Protocol: This protocol establishes steady-state pharmacokinetics in even poorly vascularized tissues. The mice were exposed to the pulsed magnetic field, using the same parameters as with the cultured cells, for 15 min starting 30 min after the last injection. This treatment was repeated two and four days after the first treatment. Mice were sacrificed and fixed with 4% paraformaldehyde 24 hrs after the third treatment. Tissues from these animals were sectioned and evaluated by a pathologist that was blind to the treatment.

[4] = system: MDA-MB-231 breast cancer cells; assay: Cell lysis, digoxin with 80 mT pulsed magnetic field in solenoid; assay type: cell-based; details: 100 nM digoxin + 80 mT magnetic pulses at 25 Hz, within 10 min
Description: (§1) Tubes were placed in an 8″1X 2.5″dia. solenoid with 697 turns (500 ft.) of 12 ga copper wire. A 5VDC current from an AE Techron 7224 DC-extended AC amplifier pulsed at 25 Hz, with a 10 msec ramp and fall, controlled by a Techtronics AFG 3021B waveform generator produced 80 mT magnetic pulses in the solenoid.

[5] = system: MCF-10a normal breast epithelial cells; assay: as above; assay type: cell-based; details: 100 nM digoxin + 80 mT magnetic pulses at 25 Hz
Description: as §1

MDA-MB-231 cells [6] = assay: Trypan Blue estimate of cell lysis, ouabain with or without pulsed z-gradient magnetic field (MRI); assay type: cell-based
Protocol: Two tubes of MDA-MB-231 cells were prepared. The media in one tube was replaced by media containing 100 nM ouabain to block the sodium pumps. Both tubes were placed in the MRI and offset from center by 317 mm in the z-gradient field and exposed to the pulsed magnetic field. The samples were then repositioned and imaged.
After imaging, the cells in each vial were stained with Trypan Blue to estimate the number of cells that had been lysed by each treatment: (A) magnetic stimulation alone or (B) ouabain and magnetic stimulation. Virtually all of the cells that had only been exposed to pulsed magnet field stimulation were alive (expelled the Trypan Blue stain) and 10-15% of the cells that had been simultaneously treated with ouabain and pulse magnetic field stimulation were dead (appeared shrunken and retained the stain).
In this example, cells were exposed to ouabain for over 60 min during the preparation for the magnetic field stimulation. Because lysis may occur in a small percentage of cells when exposed to ouabain alone, a study was conducted where a vial of cells was exposed to ouabain without pulsed field stimulation for greater than 90 min.
The duration, amplitude and frequency of the pulsed z-gradient field was varied. All targeted osmotic lysis (TOL) vials (ouabain and pulsed magnetic field stimulation) were exposed to 100 nM ouabain for 10 min. Ouabain-treated and normal MDA-MB 231 control vials were exposed to the same pulsed magnetic field and then stained with Trypan Blue to estimate the amount of cell lysis in each tube. Two trials were conducted using the maximum field strength available (289.1689 Amp). The pulsed stimulus for the first of these trials was delivered with a rise time of 10 msec, a 2.5 msec return to baseline and an inter-stimulus interval of 17.5 msec; the stimulus was pulsed with a rise time of 10 msec, a 2.5 msec return to baseline and an inter-stimulus interval of 7.5 msec for the second trial. […]

SMILES | cell lysis (MDA-MB-231 cells [1]) | time to reach humane endpoint euthanasia criteria vs control groups [2] | cytotoxicity at 0.5 µM (MDA-MB-231 cells [3]; read-out: non-viable cells, 500 nM digoxin + 80 mT PMF 10 min (Dig-PMF), Ringers +Na+ (FIG. 2)) | cytotoxicity at 0.5 µM (MDA-MB-231 cells [3]; read-out: non-viable cells, 500 nM digoxin + 80 mT PMF 10 min (Dig-PMF), Ringers without sodium (FIG. 2)) | tumor lysis (MDA-MB-231 xenografts; 5 mg/kg digoxin s.c. five times at 1 hr intervals + PMF 15 min, three treatments (TOL)) | median tumor necrosis score (grade 1-5) vs controls (MDA-MB-231 xenografts; 5 mg/kg digoxin s.c. x5 + PMF (TOL), FIG. 4, p<0.05) | tumor histology, drug-only control vs untreated controls (MDA-MB-231 xenografts; 5 mg/kg digoxin s.c. x5, no magnetic stimulation) | tumor growth rate vs controls (MDA-MB-231 xenografts; TOL (Dig-PMF), FIG. 6) | cells lysed [4] | cell lysis when stimulated [5] | cell lysis, kill rate (MDA-MB-231 cells [6]; 100 nM ouabain 10 min + pulsed z-gradient field, amplitude 289.1689, inter-pulse interval 7.5 msec (50 Hz)) | cells dead (retained Trypan Blue stain) (MDA-MB-231 cells [6]; 100 nM ouabain (over 60 min) + pulsed z-gradient magnetic field 5 min, amplitude 187.5973, inter-stimulus interval 17.5 msec) | cells dead (MDA-MB-231 cells [6]; ouabain alone, no pulsed field stimulation, greater than 90 min)
C[C@H]1O[C@@H](O[C@H]2[C@@H](O)C[C@H](O[C@H]3[C@@H](O)C[C@H](O[C@H]4CC[C@@]5(C)[C@H](CC[C@@H]6[C@@H]5C[C@@H](O)[C@]5(C)[C@@H](C7=CC(=O)OC7)CC[C@]65O)C4)O[C@@H]3C)O[C@@H]2C)C[C@H](O)[C@@H]1O [digoxin] | ~100% | significantly longer | ~70% | < 20% | 80-100% | significantly greater | did not differ from untreated controls | significantly slower | 97.5% | Neither digoxin-treated nor untreated MCF-10a cells lysed | – | – | –
C[C@@H]1O[C@@H](O[C@H]2C[C@@H](O)[C@]3(CO)[C@H]4[C@H](O)C[C@]5(C)[C@@H](C6=CC(=O)OC6)CC[C@]5(O)[C@@H]4CC[C@]3(O)C2)[C@H](O)[C@H](O)[C@H]1O [ouabain] | – | – | – | – | – | – | – | – | – | – | 80-90% | 10-15% | Less than 1%
